According to patent US10532085B2, “Methods for increasing intracellular activity of Hsp70” (Orphazyme A/S, priority 2010, dated 2020):

Assays:
[1] = system: MEFs; assay type: cell-based
Procedure: (§1) BMP binds ASM with high affinity and stimulates its ability to hydrolyze sphingomyelin to ceramide and phosphorylcholine. […] In order to test whether ASM is responsible for the lysosome stabilizing effect we treated the cells with desipramine, a well characterized pharmacological ASM inhibitor. […] It should be noted that akin to rHsp70, also rASM localized to the lysosomes.
Cell density was assessed by the 3-(4,5-dimethylthiazole-2-y)-2,5-[…] (MTT, SIGMA-Aldrich) reduction assay essentially as described in the art. Apoptosis-like cell death was assessed by staining the cells with 0.05 μg/ml Hoechst 33342 (Molecular Probes) and counting cells with condensed nuclei in an inverted Olympus IX-70 fluorescent Microscope (Filter U-MWU 330-385 nm). For each experiment a minimum of eight randomly chosen areas were counted.

[2] = system: MEFs; assay type: cell-based; remark: listed apart in the source
Procedure: as §1
The total and cytoplasmic (digitonin-extracted) cathepsin activities were measured in digitonin-treated samples using zFR-AFC (Enzyme System Products) probe as described in the art.

[3] = system: Hsp70-MEFs; assay: Lysosomal membrane integrity upon photo-oxidation in Hsp70-MEFs; assay type: cell-based, murine; details: subtoxic concentration
Procedure: as §1
(§2) Sub-confluent cells incubated with 2 μg/ml acridine orange for 15 min at 37° C. were washed, irradiated and analyzed in Hanks balanced salt solution complemented with 3% fetal calf serum. Cells for single cell imaging were selected from 8 pre-defined areas of each well in transmitted light-mode after which the same cells were immediately visualized and exposed to blue light from USH102 100W mercury arc burner (Ushio electric) installed in a U-ULS100HG housing (Olympus) for 20 sec. Fluorescence microscopy was performed on Olympus IX-70 inverted microscope with a LCPlanF1 ×20 objective with NA=0.40. Loss of lysosomal pH gradient was quantified by counting the loss of intense red staining. A more elaborate method for assaying lysosomal integrity was developed to handle the larger lysosomal compartment of the various fibroblasts used in this study. […] The resulting timelapse movies where subsequently analysed by the integrated Zeiss LSM DUO software.

[4] = system: U-2-OS cells; assay: Lysosomal integrity upon photo-oxidation (acridine orange and blue light); assay type: cell-based, Human; details: recombinant proteins 300 nM, 24 h
Procedure: FIG. 2: Lysosomal Hsp70 stabilizes lysosomal membranes. (a) Representative confocal images of U-2-OS cells incubated with 300 nM rHsp70-AF488 (green) for 24 h, fixed and stained for lysosomal integral membrane protein-1 (LIMP-1; red). For co-localization with other organelle markers see FIG. 3. (b) U-2-OS cells were incubated with 300 nM rHsp70-AF488 for 24 h before quantification of rHsp70-AF488 in membranes (memb.) and supernatant (sup.) obtained by repeated freeze/thaw cycles and centrifugation the light membrane fraction (LMF). […] (c) Representative still images of U-2-OS cells exposed to photo-oxidation (acridine orange and blue light). The loss of lysosomal integrity is visualized by the loss of red and increase in green staining. (d and e) U-2-OS cells were incubated with indicated recombinant proteins (300 nM) for 24 h, and analyzed for lysosomal integrity upon photo-oxidation. When indicated, cells were treated with indicated siRNAs for 48 h prior to the addition of recombinant proteins (e). The values represent means±SD (standard deviation) for three (d) or five (e) independent experiments. Representative immunoblots of indicated proteins from U-2-OS cells left untreated or treated with control or Hsp70 siRNAs are shown on the right. Scale bars: 20 μm (a and c).
WT- and Hsp70-MEFs were generated, immortalized and maintained as described in the art. Human NPDA fibroblasts (83/24) originate from a skin biopsy of a patient with hepatosplenomegaly. Recombinant proteins were generated using the pET-16b vector system and Ni^2+-affinity-purification (Novagen), and labeled with Alexa Fluor 488 according to manufacturers protocol (Molecular Probes). To analyze the lysosomal integrity, we developed a real time imaging method of cells stained with acridine orange, a metachromatic weak base that accumulates in the acidic compartment of the cells staining them red and sensitizing them to photo-oxidation. The photo-oxidation-induced loss of the lysosomal pH-gradient and leakage of acridine orange to the cytosol from individual lysosomes was quantified visually as “loss of red dots” in U2-O—S cells and as a decrease in red and an increase in green fluorescence by Zeiss LSM DUO Software in fibroblasts. The total and cytoplasmic (digitonin-extracted) cathepsin activities were measured in digitonin-treated samples using zFR-AFC (Enzyme System Products) probe as described in the art. The tryptophan fluorescence spectra and liposome 90° light scattering were analyzed in a HEPES buffer (20 mM HEPES, 0.1 mM EDTA, pH as indicated) essentially as described in the art. Surface plasmon resonance measurements were performed with immobilized LUVs using a BIAcore 2000 system as described in the art. Hsp70 siRNA (5′-[…]-3′) and a […] were transfected with Oligofectamine (Invitrogen). Immunodetection was performed with standard protocols. Apoptosis-like cell death and lysosomal membrane permeabilization were analyzed essentially as described in the art. ASM activity was analyzed by Amplex Red Sphingomyelinase Assay Kit (A12220) from Molecular Probes with modifications described in the art. Statistical analysis was performed using a two-tailed, paired Student's T-test and all groups of data were tested for the comparability of their variances using an F-test.
Sub-confluent cells incubated with 2 μg/ml acridine orange for 15 min at 37° C. were washed, irradiated and analyzed in Hanks balanced salt solution complemented with 3% fetal calf serum. Cells for single cell imaging were selected from 8 pre-defined areas of each well in transmitted light-mode after which the same cells were immediately visualized and exposed to blue light from USH102 100W mercury arc burner (Ushio electric) installed in a U-ULS100HG housing (Olympus) for 20 sec. Fluorescence microscopy was performed on Olympus IX-70 inverted microscope with a LCPlanF1 ×20 objective with NA=0.40. […]

[5] = Surface plasmon resonance (BIAcore) BMP interaction; assay type: binding; details: acidic pH
Text: Thus, we investigated the interaction of Hsp70 with palmitoyl-oleoyl-phosphatidylcholine (POPC) large unilamellar vesicles (LUVs) containing various membrane-associated anionic lipids, i.e. palmitoyl-oleoyl-phosphatidylserine (POPS; primarily in plasma membrane), cardiolipin (primarily mitochondrial) and BMP (primarily in late endosomes/lysosomes). Taking into account the increasingly acidic milieu of the endo-lysosomal compartment upon maturation to lysosomes, we compared the protein-lipid interactions in neutral (pH 7.4) and acidic (pH 6.0) conditions. […] As reported earlier for POPS, all negatively charged lipids enhanced the binding of rHsp70 to the liposomes at neutral pH approximately 4-fold irrespective of the charge density on the liposome surface (ranging from −1 to −2).
(§3) In order to investigate which part of the Hsp70 protein is responsible for the BMP binding, we measured the fluorescence shift of the tryptophans upon docking of rHsp70 and its mutants into BMP-containing liposomes. […] Next, we substituted the two tryptophans in Hsp70 with phenylalanines (W90F and W580F) and studied which tryptophan is responsible for the fluorescence shift induced by lipid binding. […] A more quantitative BIAcore analysis of the BMP—rHsp70 interaction confirmed that Hsp70 interacted with BMP mainly through its ATPase domain. […]

[6] = Tryptophan fluorescence shift upon docking into BMP-containing liposomes; assay type: binding
Text: In order to investigate which part of the Hsp70 protein is responsible for the BMP binding, we measured the fluorescence shift of the tryptophans upon docking of rHsp70 and its mutants into BMP-containing liposomes. […] Next, we substituted the two tryptophans in Hsp70 with phenylalanines (W90F and W580F) and studied which tryptophan is responsible for the fluorescence shift induced by lipid binding. […] A more quantitative BIAcore analysis of the BMP—rHsp70 interaction confirmed that Hsp70 interacted with BMP mainly through its ATPase domain. […] Thus, the rHsp70-W90F mutant provided us with an invaluable tool to further test whether the direct interaction between Hsp70 and BMP endows Hsp70 with its lysosome protective attributes. […] Importantly, mutant Hsp70 proteins were endocytosed essentially as effectively as the wild type Hsp70.
The tryptophan fluorescence spectra (RFI) and liposome 90° light scattering (RSI) were analyzed in a HEPES buffer (20 mM HEPES, 0.1 mM EDTA, pH 7.4 or 6.0 as indicated) employing LUVs consisting of indicated lipids essentially as described in the art. For the RFI, LUVs were added in 10 μM aliquots and spectra recorded after a 20 min stabilization period. For the RSI, recombinant proteins were added in 0.12 nmol aliquots.

[7] = molecular target: T1, Hsp70 chaperone (Homo sapiens, UniProt P0DMV8, W90F); assay: Structural and functional aspects of the Hsp70 chaperone (circular dichroism, luciferase folding, ATP hydrolysis); assay type: biochemical; details: far- and near-UV circular dichroism
T1 construct: made in house
T1 sequence (P0DMV8 whole entry W90F): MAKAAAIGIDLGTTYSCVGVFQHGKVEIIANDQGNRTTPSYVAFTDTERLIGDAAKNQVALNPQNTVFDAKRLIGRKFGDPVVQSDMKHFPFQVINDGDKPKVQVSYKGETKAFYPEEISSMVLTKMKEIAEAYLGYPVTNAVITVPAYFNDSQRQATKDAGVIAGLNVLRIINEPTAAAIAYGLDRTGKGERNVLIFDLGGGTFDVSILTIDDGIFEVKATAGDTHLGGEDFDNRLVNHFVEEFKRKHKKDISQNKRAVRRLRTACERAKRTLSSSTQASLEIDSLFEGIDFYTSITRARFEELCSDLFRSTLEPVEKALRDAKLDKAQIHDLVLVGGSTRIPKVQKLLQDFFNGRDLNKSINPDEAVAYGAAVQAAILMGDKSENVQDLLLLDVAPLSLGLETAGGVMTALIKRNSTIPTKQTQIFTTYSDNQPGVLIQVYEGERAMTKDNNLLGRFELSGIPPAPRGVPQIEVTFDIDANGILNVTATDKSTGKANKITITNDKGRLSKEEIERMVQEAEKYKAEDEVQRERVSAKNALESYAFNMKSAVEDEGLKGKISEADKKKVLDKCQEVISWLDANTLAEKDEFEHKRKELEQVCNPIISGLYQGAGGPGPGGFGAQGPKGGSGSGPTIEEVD

[8] = system: cisplatin-induced lysosomal cell death; assay: Cisplatin-induced lysosomal cell death; assay type: cell-based
Text: Thus, we investigated the interaction of Hsp70 with palmitoyl-oleoyl-phosphatidylcholine (POPC) large unilamellar vesicles (LUVs) containing various membrane-associated anionic lipids, i.e. palmitoyl-oleoyl-phosphatidylserine (POPS; primarily in plasma membrane), cardiolipin (primarily mitochondrial) and BMP (primarily in late endosomes/lysosomes). Taking into account the increasingly acidic milieu of the endo-lysosomal compartment upon maturation to lysosomes, we compared the protein-lipid interactions in neutral (pH 7.4) and acidic (pH 6.0) conditions. […]
as §3
Cell density was assessed by the 3-(4,5-dimethylthiazole-2-y)-2,5-[…] (MTT, SIGMA-Aldrich) reduction assay essentially as described in the art. […] For each experiment a minimum of eight randomly chosen areas were counted.

[9] = system: ASM; assay: ASM activity in NPDA patient cells; assay type: cell-based, Human; details: loading the lysosomes of patient cells
Text: as §1
WT- and Hsp70-MEFs were generated, immortalized and maintained as described in the art. Human NPDA fibroblasts (83/24) originate from a skin biopsy of a patient with hepatosplenomegaly. […] The photo-oxidation-induced loss of the lysosomal pH-gradient and leakage of acridine orange to the cytosol from individual lysosomes was quantified visually as “loss of red dots” in U2-O—S cells and as a decrease in red and an increase in green fluorescence by Zeiss LSM DUO Software in fibroblasts. The total and cytoplasmic (digitonin-extracted) cathepsin activities were measured in digitonin-treated samples using zFR-AFC (Enzyme System Products) probe as described in the art. The tryptophan fluorescence spectra and liposome 90° light scattering were analyzed in a HEPES buffer (20 mM HEPES, 0.1 mM EDTA, pH as indicated) essentially as described in the art. […] Apoptosis-like cell death and lysosomal membrane permeabilization were analyzed essentially as described in the art. […]

[10] = system: NPDA cells; assay: Lysosomal stability in NPDA cells; assay type: cell-based, Human
Procedure: as §1, §2

[11] = system: NPDA cells; assay: Volume of the lysosomal compartment in NPDA cells; assay type: cell-based, Human
Text: as §1
Primary antibodies used included mouse monoclonal antibodies against Hsp70 (2H9; kindly provided by Boris Margulis, Russian Academy of Sciences, St. Petersburg, Russia), glyceraldehyde-3-phosphate dehydrogenase (GAPDH; Biogenesis), BMP (6C4), lysosomal integral membrane protein-1 (H5C6; developed by J. Thomas August and James E. K. Hildreth and obtained from the Developmental Studies Hybridoma Bank developed under the auspices of the NICHD and maintained by The University of Iowa, Department of Biological Sciences, Iowa City, USA). Proteins separated by 10% SDS-PAGE and transferred to a nitrocellulose membrane were detected by using indicated primary antibodies, appropriate peroxidase-conjugated secondary antibodies from Dako, ECL Western blotting reagents (Amersham), and Luminescent Image Reader (LAS-1000Plus, Fujifilm). For immunocytochemistry Alexa […] or Alexa Fluor®-488-conjugated secondary antibodies were used. […] Fluorescence images were taken using a Zeiss Axiovert 100M laser scanning microscope. […]

## CNCCCN1c2ccccc2CCc2ccccc21 [Desipramine, desipramine]
[1]
  viability of MEFs: reduced the viability of MEFs in a dose-dependent manner
[2]
  permeabilization of lysosomes: massive permeabilization of lysosomes
[3]
  lysosomal stress resistance of Hsp70-MEFs upon photo-oxidation: reverted the lysosomal stress resistance of Hsp70-MEFs to the level of WT-MEFs

## Hsc70: recombinant Hsc70, 86% identical to the amino acid sequence of Hsp70
[4]
  protection of lysosomes against photo-oxidation (lysosomal stabilization): no lysosomal stabilization

## Hsp70-2: recombinant Hsp70-2, 84% identical to the amino acid sequence of Hsp70
[4]
  protection of lysosomes against photo-oxidation (lysosomal stabilization): no lysosomal stabilization

## rHsp70-W90F: rHsp70 mutant with tryptophan 90 substituted with phenylalanine
[4]
  protection of lysosomes against photo-oxidation (lysosomal stabilization): completely lost its ability to protect
[5]
  interaction with BMP (BIAcore): specifically abolished the interaction between rHsp70 and BMP
[6]
  relative peak fluorescence intensity (tryptophan fluorescence shift): reduction of the signal
[7]
  structural and functional aspects of the chaperone: retaining the structural (folding as analyzed by far- and near-UV circular dichroism) and functional (luciferase folding and ATP hydrolysis) aspects
[8]
  protection of cells against cisplatin-induced lysosomal cell death: completely lost its ability to protect

## rHsp70-W580F: rHsp70 mutant with tryptophan 580 substituted with phenylalanine
[4]
  protection of lysosomes against photo-oxidation (lysosomal stabilization): same protective effect as the wild-type protein
[8]
  protection of cells against cisplatin-induced lysosomal cell death: same protective effect as the wild-type protein

B1: rASM: recombinant acid sphingomyelinase (protein, UniProt P17405 47-631, looked up)
Sphingomyelin …: LALSDSRVLWAPAEAHPLSPQGHPARLHRIVPRLRDVFGWGNLTCPICKGLFTAINLGLKKEPNVARVGSVAIKLCNLLKIAPPAVCQSIVHLFEDDMVEVWRRSVLSPSEACGLLLGSTCGHWDIFSSWNISLPTVPKPPPKPPSPPAPGAPVSRILFLTDLHWDHDYLEGTDPDCADPLCCRRGSGLPPASRPGAGYWGEYSKCDLPLRTLESLLSGLGPAGPFDMVYWTGDIPAHDVWHQTRQDQLRALTTVTALVRKFLGPVPVYPAVGNHESTPVNSFPPPFIEGNHSSRWLYEAMAKAWEPWLPAEALRTLRIGGFYALSPYPGLRLISLNMNFCSRENFWLLINSTDPAGQLQWLVGELQAAEDRGDKVHIIGHIPPGHCLKSWSWNYYRIVARYENTLAAQFFGHTHVDEFEVFYDEETLSRPLAVAFLAPSATTYIGLNPGYRVYQIDGNYSGSSHVVLDHETYILNLTQANIPGAIPHWQLLYRARETYGLPNTLPTAWHNLVYRMRGDMQLFQTFWFLYHKGHPPSEPCGTPCRLATLCAQLSARADSPALCRHLMPDGSLPEAQSLWPRPLFC
[9]
  ASM activity in NPDA patient cells: increased ASM activity
[10]
  stabilization of lysosomes in NPDA cells: stabilize the lysosomes
[11]
  volume of the enlarged lysosomal compartment in NPDA cells: normalize the volume
